From paper PMC7180739, “Aggregation and Molecular Properties of β-Glucosidase Isoform II in Chayote (Sechium edule)” (Molecules, 2020)

system: T1, β-glucosidase isoform II (β-glucosidase II, Sebg); experiment: p-nitrophenol release, nonlinear regression; assay type: biochemical, Sechium edule; settings: 40 °C, 0.2 M sodium citrate pH 5.0 (pH 5.5)
T1 construct: native, purified from fruit epicarp and mesocarp
Excerpt: p-nitrophenol release, nonlinear regression on β-glucosidase isoform II (β-glucosidase II, Sebg)

SMILES | Km [mM]
C[C@H]1O[C@@H](Oc2ccc([N+](=O)[O-])cc2)[C@H](O)[C@@H](O)[C@H]1O [pNPFuc, p-Nitrophenyl-β-D-fucopyranoside] | 16.1 ± 2.62
O=[N+]([O-])c1ccc(O[C@@H]2O[C@H](CO)[C@H](O)[C@H](O)[C@H]2O)cc1 [pNPGal, p-Nitrophenyl-β-D-galactopyranoside] | 5.72 ± 0.45
O=[N+]([O-])c1ccc(O[C@@H]2O[C@H](CO)[C@@H](O)[C@H](O)[C@H]2O)cc1 [pNPGlc, p-Nitrophenyl-β-D-glucopyranoside] | 4.59 ± 0.49
